From patent publication US9611278B2 (Merck Sharp & Dohme Corp., priority 2013, dated 2017)

Tests used:
[1] = test system: Spontaneously hypertensive rats (SHR); test: Acute Efficacy in Spontaneously Hypertensive Rats (SHR); type: in vivo, rat; conditions: single oral dose
Text: Spontaneously hypertensive rats (SHR, male, Charles River) were implanted with DSI TA11PA-C40 telemetry device (Data Sciences, Inc., St. Paul, Minn.) under isoflurane or ketamine/metomidine anesthesia. The telemetry unit catheter was inserted into the descending aorta via the femoral artery and the telemetry device was implanted subcutaneously in the left flank area. Animals were allowed to recover from surgery for 14 days before the start of any studies. Blood pressure, heart rate, and activity signals from conscious, freely moving rats were recorded continuously for 30 seconds every 10 min. On the day prior to administration of compound, a single oral dose of vehicle (10% transcutol/20% Cremophor/70% water) was administered to all animals to establish baseline control data. The blood pressure lowering efficacy of compound (PO) or vehicle was evaluated following a single oral gavage. Data were collected as hourly averages, and changes in blood pressure were calculated by subtracting control baseline data on an hourly basis. Animals were maintained on normal diet with a 12 hour light-dark cycle.
Maximum peak decreases of systolic blood pressure (SBP) in SHR at a particular P.O. dose (mpk milligrams per kilogram) for the following representative compounds are provided in Table 9. Category A=SBP in SHRs <15 mmHg; Category B=SBP in SHRs 15-25 mmHg; Category C=SBP in SHRs >25 mmHg

[2] = biological target: T1, sGC α1/β1 heterodimer stably expressed in CHO-K1 cells (CHO-K1/sGC) (Homo sapiens, UniProt Q02108+Q02153); test: Cell-based sGC Functional Assay (CASA Assay); conditions: for Emax: CHO-K1, activation as percentage of maximum cGMP production of Compound A (set to 100%), read-out: % Act.; for EC50: inflection point of cGMP generation in CHO-K1/sGC cells, 4P fit, 1 hr at 37° C., read-out: IP
T1 construct: expressed in transfected cells
T1 sequence (Q02108 1-690): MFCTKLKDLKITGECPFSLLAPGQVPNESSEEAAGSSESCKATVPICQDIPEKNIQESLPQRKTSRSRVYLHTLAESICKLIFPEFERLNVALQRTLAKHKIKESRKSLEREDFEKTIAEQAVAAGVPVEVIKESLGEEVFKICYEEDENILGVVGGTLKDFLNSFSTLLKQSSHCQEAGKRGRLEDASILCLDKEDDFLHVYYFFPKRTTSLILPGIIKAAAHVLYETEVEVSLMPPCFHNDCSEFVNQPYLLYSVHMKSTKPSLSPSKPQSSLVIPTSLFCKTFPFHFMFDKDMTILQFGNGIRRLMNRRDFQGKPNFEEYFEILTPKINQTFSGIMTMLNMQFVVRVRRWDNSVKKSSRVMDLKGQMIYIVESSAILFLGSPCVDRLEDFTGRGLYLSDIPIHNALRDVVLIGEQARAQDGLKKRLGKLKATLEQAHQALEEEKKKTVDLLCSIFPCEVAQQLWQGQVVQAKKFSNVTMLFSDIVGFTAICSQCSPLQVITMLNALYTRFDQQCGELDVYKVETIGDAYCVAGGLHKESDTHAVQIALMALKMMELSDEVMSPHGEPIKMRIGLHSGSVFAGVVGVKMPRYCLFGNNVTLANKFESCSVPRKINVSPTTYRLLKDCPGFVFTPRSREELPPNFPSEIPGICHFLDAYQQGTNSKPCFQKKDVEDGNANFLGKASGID
T1 sequence (Q02153 1-619): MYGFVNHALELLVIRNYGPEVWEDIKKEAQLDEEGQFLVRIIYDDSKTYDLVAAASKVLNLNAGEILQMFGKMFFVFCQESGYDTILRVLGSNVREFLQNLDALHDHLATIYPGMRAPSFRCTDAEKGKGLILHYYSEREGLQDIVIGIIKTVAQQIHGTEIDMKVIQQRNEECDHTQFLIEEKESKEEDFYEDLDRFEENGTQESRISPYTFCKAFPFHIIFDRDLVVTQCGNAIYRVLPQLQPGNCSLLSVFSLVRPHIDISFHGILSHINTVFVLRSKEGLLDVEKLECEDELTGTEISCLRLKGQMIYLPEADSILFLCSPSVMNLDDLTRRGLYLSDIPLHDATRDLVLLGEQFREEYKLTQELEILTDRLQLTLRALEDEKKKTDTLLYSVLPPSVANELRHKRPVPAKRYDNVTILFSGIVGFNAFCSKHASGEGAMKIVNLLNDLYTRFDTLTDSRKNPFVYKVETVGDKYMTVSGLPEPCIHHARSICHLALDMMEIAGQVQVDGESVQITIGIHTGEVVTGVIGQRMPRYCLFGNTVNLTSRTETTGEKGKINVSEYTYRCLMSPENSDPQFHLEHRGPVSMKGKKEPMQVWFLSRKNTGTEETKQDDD
Summary of the method: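 CHO-K1 cells stably expressing human sGC α1/β1 were incubated with compound for 1 h at 37 °C in buffer with 0.5 mM IBMX and 2.5% DMSO, with or without 1 μM DETA-NO. Intracellular cGMP was read by HTRF and expressed as percentage of maximal activation by reference activator Compound A. Values came from a 4-parameter fit.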

SMILES	Category: maximum peak decrease of systolic blood pressure (SBP) in SHR ([1]; P.O. 1 mpk)	Emax [2] [%]	EC50 [2] [nM]	Category: maximum peak decrease of systolic blood pressure (SBP) in SHR ([1]; P.O. 0.3 mpk)	% Act. ([2]; activation as percentage of maximum cGMP production of Compound A (set to 100%)) [%]
[2H]C([2H])([2H])n1ncc2c(-c3nc(N)c4c(n3)NC(=O)C4(c3nnc(C4CC4)o3)C3CC3)nc(CCC(F)(F)C(F)(F)F)nc21 (stereo not drawn) [Example 38, 4-Amino-5-cyclopropyl-5-(5-cyclopropyl-1,3,4-oxadiazol-2-yl)-2-(1-(methyl-d3)-6-(3,3,4,4,4-pentafluorobutyl)-1H-pyrazolo[3,4-d]pyrimidin-4-yl)-5,7-dihydro-6H-pyrrolo[2,3-d]pyrimidin-6-one]	C (Category C=SBP in SHRs >25 mmHg)	165	265		
Cn1ncc2c(-c3nc(N)c4c(n3)NC(=O)C4(c3nnc(C4CC4)o3)C3CC3)nc(CCC(F)(F)C(F)(F)F)nc21 (stereo not drawn) [Example 44, 4-Amino-5-cyclopropyl-5-(5-cyclopropyl-1,3,4-oxadiazol-2-yl)-2-(1-methyl-6-(3,3,4,4,4-pentafluorobutyl)-1H-pyrazolo[3,4-d]pyrimidin-4-yl)-5,7-dihydro-6H-pyrrolo[2,3-d]pyrimidin-6-one]	B (Category B=SBP in SHRs 15-25 mmHg)	113	225		
[2H]C([2H])([2H])n1ncc2c(-c3nc(N)c4c(n3)NC(=O)C4(C)c3cn(CC4CC4)nn3)nc(CCC(F)(F)C(F)(F)F)nc21 (stereo not drawn) [Example 63, 4-Amino-5-(1-(cyclopropylmethyl)-1H-1,2,3-triazol-4-yl)-5-methyl-2-(1-(methyl-d3)-6-(3,3,4,4,4-pentafluorobutyl)-1H-pyrazolo[3,4-d]pyrimidin-4-yl)-5,7-dihydro-6H-pyrrolo[2,3-d]pyrimidin-6-one]	A (Category A=SBP in SHRs <15 mmHg)	93	235		
[2H]C([2H])([2H])n1ncc2c(-c3nc(N)c4c(n3)NC(=O)C4(C)c3cn(C(C)C)nn3)nc(CCC(F)(F)C(F)(F)F)nc21 (stereo not drawn) [Example 67, 4-Amino-5-(1-isopropyl-1H-1,2,3-triazol-4-yl)-5-methyl-2-(1-(methyl-d3)-6-(3,3,4,4,4-pentafluorobutyl)-1H-pyrazolo[3,4-d]pyrimidin-4-yl)-5,7-dihydro-6H-pyrrolo[2,3-d]pyrimidin-6-one]			120	B (Category B=SBP in SHRs 15-25 mmHg)	128
CC(C)n1cc(C2(C)C(=O)Nc3nc(-c4nc(CCCC(F)(F)F)nc5c4cnn5C)nc(N)c32)nn1 (stereo not drawn) [Example 78, 4-Amino-5-(1-isopropyl-1H-1,2,3-triazol-4-yl)-5-methyl-2-(1-methyl-6-(4,4,4-trifluorobutyl)-1H-pyrazolo[3,4-d]pyrimidin-4-yl)-5,7-dihydro-6H-pyrrolo[2,3-d]pyrimidin-6-one]	C (Category C=SBP in SHRs >25 mmHg)	103	368		
Cn1ccc2c(-c3nc(N)c4c(n3)NC(=O)C4(C)c3nnc(C4CC4)o3)nc(CCC(F)(F)C(F)(F)F)nc21 (stereo not drawn) [Example 86, 4-Amino-5-(5-cyclopropyl-1,3,4-oxadiazol-2-yl)-5,7′-dimethyl-2′-(3,3,4,4,4-pentafluorobutyl)-5,7-dihydro-6H,7′H-[2,4′-bipyrrolo[2,3-d]pyrimidin]-6-one]	B (Category B=SBP in SHRs 15-25 mmHg)	104	410		
